Measurements reported in patent US11285160B2, “Pharmaceutical composition and method for treatment of non-alcoholic fatty liver disease” (MITSUBISHI TANABE PHARMA CORPORATION, priority 2016, dated 2022).

What was measured:
[1] = background statement; cited from earlier work
CDAA diet-loaded rats = assay: Hepatic fibrosis development in NASH animal model (CDAA diet-loaded rat), repeated oral administration for 10 weeks; type: in vivo, F344 rats; details: for Sirius red positive areas (%) (mean ± S.E.): primary endpoint; for Fibrosis development score (mean ± S.E.): score 0-4 (Table 3), secondary endpoint
Excerpt: Some heads of F344 rats (5-week-old, body weight 67.5 to 87.5 g, purchased from Japan SLC, Inc.) were housed (for quarantine inspection and acclimatization) for 15 days while receiving a normal diet, and were then used as a test animal. The rats were divided into six treatment groups by stratified random allocation using body weight as a randomization factor (each 10 heads of the rats per group). The test compounds (that is, the compound (I) or eplerenone) were suspended into 0.5% aqueous carmellose sodium solution containing a vehicle (0.1% polyoxyethylene hydrogenated castor oil (HCO-60, manufactured by Nikko Chemicals Co., Ltd.)), and the resultant suspensions were used (10 mL/kg). The rats were loaded with a CDAA diet (choline deficient L-amino acid defined diet), and simultaneously with the loading, were received with a repeated oral administration of the above-mentioned compound (I) (1 mg/kg, 3 mg/kg, and 10 mg/kg) at once per day for 10 weeks (hereinafter, which is referred to as “Compound (I)-treated group”). Also, the rats that were loaded with the CDAA diet and were received with the administration of the above-mentioned vehicle (10 mL/kg) were assigned to “disease control group”, and also the rats that were loaded with the CSAA diet and were received with the administration of the above-mentioned vehicle (10 mL/kg) were assigned to “normal control group”. While, “positive control group” rats were loaded with the CDAA diet and were received with a repeated oral administration of eplerenone (100 mg/kg) at once per day for 10 weeks.
After the administration, the test tissues were sampled from lamella of the extracted liver, and the pathological specimens were constructed. Each effect of the respective test compound on NASH was examined using the Sirius red positive areas of the specimens as a primary endpoint. Also the fibrosis development scores of hepatic pathological specimens in each group were examined as the secondary endpoint.

[2] = biological target: CYP3A4 (cytochrome P450 3A4) (Homo sapiens, UniProt P08684); details: Non-Patent documents 12 and 13; cited from earlier work
[3] = tested on: UGT enzymes (Uridine diphosphate glucuronosyltransferase); assay: Main metabolic pathway of compound (I); type: in vitro ADME; details: estimated
[4] = CDAA diet-loaded rats, 100 mg/kg oral once per day for 10 weeks
[5] = CDAA diet-loaded rats, 1 mg/kg oral once per day for 10 weeks
[6] = CDAA diet-loaded rats, 3 mg/kg oral once per day for 10 weeks
[7] = CDAA diet-loaded rats, 10 mg/kg oral once per day for 10 weeks

Chain of CYP3A4 (cytochrome P450 3A4) (P08684 whole entry): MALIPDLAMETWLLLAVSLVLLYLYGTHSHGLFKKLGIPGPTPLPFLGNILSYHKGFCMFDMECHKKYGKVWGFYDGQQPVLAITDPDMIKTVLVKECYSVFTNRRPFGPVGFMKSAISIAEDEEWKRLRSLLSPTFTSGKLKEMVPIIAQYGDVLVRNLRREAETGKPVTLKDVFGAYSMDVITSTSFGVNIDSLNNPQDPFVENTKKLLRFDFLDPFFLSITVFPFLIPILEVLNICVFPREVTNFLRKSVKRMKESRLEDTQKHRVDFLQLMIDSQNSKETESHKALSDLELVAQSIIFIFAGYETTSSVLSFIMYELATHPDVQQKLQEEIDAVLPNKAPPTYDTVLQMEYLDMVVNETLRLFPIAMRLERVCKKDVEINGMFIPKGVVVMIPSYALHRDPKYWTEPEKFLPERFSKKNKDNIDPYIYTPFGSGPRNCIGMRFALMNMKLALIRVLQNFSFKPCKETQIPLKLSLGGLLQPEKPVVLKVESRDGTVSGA

Main metabolic pathway [3]	Compound	Half-life in blood [1]	Fibrosis development scores as compared with disease control group (CDAA diet-loaded rats; 100 mg/kg, positive control group)	Sirius red positive areas (%) (mean ± S.E.) (CDAA diet-loaded rats; [4])	Fibrosis development score (mean ± S.E.) (CDAA diet-loaded rats; [4])	Metabolizing enzyme [2]	Sirius red positive areas as compared with disease control group (CDAA diet-loaded rats; 1 mg/kg, 3 mg/kg and 10 mg/kg-treated groups, all)	Fibrosis development scores as compared with disease control group (CDAA diet-loaded rats; 3 mg/kg-treated group and 10 mg/kg-treated group)	Sirius red positive areas (%) (mean ± S.E.) (CDAA diet-loaded rats; [5])	Fibrosis development score (mean ± S.E.) (CDAA diet-loaded rats; [5])	Sirius red positive areas (%) (mean ± S.E.) (CDAA diet-loaded rats; [6])	Fibrosis development score (mean ± S.E.) (CDAA diet-loaded rats; [6])	Sirius red positive areas (%) (mean ± S.E.) (CDAA diet-loaded rats; [7])	Fibrosis development score (mean ± S.E.) (CDAA diet-loaded rats; [7])	Progression of fibrosis development of liver (CDAA diet-loaded rats; CDAA diet-loaded rats, overall conclusion)	Sirius red positive area value at the lowest dose in comparison with eplerenone at a higher dose (CDAA diet-loaded rats; compound (I) lowest dose (1 mg/kg) vs eplerenone 100 mg/kg)
–	COC(=O)[C@@H]1CC2=CC(=O)CC[C@]2(C)[C@@]23O[C@@H]2C[C@@]2(C)[C@@H](CC[C@@]24CCC(=O)O4)[C@H]13 [Eplerenone, eplerenone, reference compound]	short half-life	not significantly different	2.8 ± 0.2	3.0 ± 0.0	metabolized mainly by CYP3A4	–	–	–	–	–	–	–	–	–	–
glucuronide conjugation by UGT enzymes	CC1(C)Oc2cc(NS(C)(=O)=O)ccc2N(c2ccc(F)cc2)C1=O [Compound (I)]	–	–	–	–	–	significantly lower	significantly lower value	4.0 ± 0.3	3.0 ± 0.0	3.6 ± 0.4	2.7 ± 0.2	1.8 ± 0.2	2.2 ± 0.1	significantly inhibit	significantly lower area value
